From PMC6273209, “Evaluation of the Enantiomer Specific Biokinetics and Radiation Doses of [^18F]Fluspidine—A New Tracer in Clinical Translation for Imaging of σ1 Receptors” (Molecules, 2016)

Assay: First-in-human PET/CT dosimetry study
Type: in vivo
Conditions: for ED: first-in-human (clinical)
Description: The first-in-human use of (S)-(−)-[^18F]fluspidine was authorized by the competent authorities in Germany, the Federal Institute for Drugs and Medical Devices (Bundesamt für Arzneimittel und Medizinprodukte, BfArM) and the Federal Office for Radiation Protection (Bundesamt für Strahlenschutz, BfS) as well as by the local ethics committee and was conducted in accordance with the Declaration of Helsinki. Informed consent was obtained from four healthy volunteers (2 f, 2 m; age: 23 ± 3 years; weight: 56 ± 4 kg). The volunteers were positioned supine with the arms down in a clinical PET/CT system (Biograph 16, Siemens, Erlangen, Germany) and received an intravenous injection of 255 ± 9 MBq (S)-(−)-[^18F]fluspidine. Simultaneously, the PET scan was started. It was divided into a dynamic part up to 2 h p.i. (7 frames) and a static part up to 7 h p.i. The volunteers left the investigation table four times to stretch out. All urine was collected, weighed, and the activity was determined in a gamma-counter (Packard Cobra II 5003 Auto Gamma Counting System, GMI, Ramsey, MN, USA) cross calibrated to the PET/CT system.
The PET images were iteratively (ordered-subsets expectation maximization, OSEM) reconstructed (preclinical: 4 iterations, 6 subsets; clinical: 4 iterations, 8 subsets) and corrected for decay, randoms, scatter, and dead time, μ-maps for attenuation correction of PET-emission data were derived from the CT or MR [49] structural data, respectively. The PET data were re-binned into 10 time frames (preclinical: 4 × 5 min, 1 × 10 min, and 5 × 15 min; clinical: 4 × 12 min, 3 × 16 min, 1 × 32 min, 1 × 40 min, and 1 × 48 min), and the reconstructed PET/MRI and PET/CT images were co-registered manually with ROVER (ABX, advanced chemical compounds, Radeberg, Germany, version 2.1.17). Quantitative evaluation was performed by drawing volumes of interest (VOI) for brain, gallbladder, large intestine, small intestine, stomach, heart, kidneys, liver, lungs, pancreas, red marrow (backbone, pelvis, sternum), spleen, thyroid, testes, and urinary bladder (Figure S4). The PET derived biokinetic data is expressed as percentage of injected activity (dose) per cubic centimeter (%ID/cm^3).
The human dosimetry estimation was performed with the data extrapolated as well as the genuine human data using OLINDA/EXM software. The time-activity curves were estimated by exponential fitting and calculating the time integral, which equals the number of disintegrations (NODs) per organ during the observation period normalized to 1 Becquerel administered activity dose. […] Therefore, activity data of the urinary bladder was derived from the image for each time point. In contrast, for humans the activity concentration data of the urinary bladder was obtained in a more direct approach. At first, the activity and volume of urine was determined in the last frame of the PET scan before each micturition. Afterwards, the voided urine was collected, weighed, and the activity of three aliquots (assuming 1 mL = 1 g) determined with a gamma counter, and the activity of the whole sample estimated. The difference between imaged and sampled urine activity is equal to the residue of radioactive urine in the urinary bladder. To calculate the NOD in the human urinary bladder, the time-activity curve is integrated using a trapezoidal equation (3) %ID˜UB=1/2∑i=1n−1(%IDi+%IDi+1)(ti+1−ti) with the fraction of injected activity %IDi at the time ti and the cumulated activity of the urinary bladder i.e., the NOD %ID˜UB .
Furthermore, the NODs of the gastric system were calculated following the ICRP GI model (ICRP 30) as implemented in OLINDA 1.0. The NODs obtained either from the EXM module or the trapezoidal equation were transferred to OLINDA. The OD for the chosen hermaphroditic adult male phantom is estimated following the MIRD scheme. The S values are pre-calculated and implemented for the respective phantom in OLINDA. […]

[1] = first-in-human PET/CT, adult male model
[2] = first-in-human PET/CT, ICRP 103 weighting
[3] = four volunteers after i.v. injection

## FCC[C@@H]1OC2(CCN(Cc3ccccc3)CC2)c2ccccc21 [(S)-(−)-[^18F]fluspidine]
Four healthy volunteers, ICRP 103 weighting
  ED: 21.0 ± 1.3 μSv/MBq
Four healthy volunteers, ICRP 103 weighting, listed as (S)-(−)-[^18F]Fluspidine
  ED: 21.0 μSv/MBq
[1]
  OD Adrenals: 15.3 μSv/MBq
  OD Brain: 22.6 μSv/MBq
  OD Breasts: 6.5 μSv/MBq
  OD Gallbladder Wall: 60.7 μSv/MBq
  OD Heart Wall: 17.7 μSv/MBq
  OD Kidneys: 31.1 μSv/MBq
  OD LLI Wall: 16.6 μSv/MBq
  OD Liver: 76.0 μSv/MBq
  OD Lungs: 28.2 μSv/MBq
  OD Muscle: 7.8 μSv/MBq
  OD Osteogenic Cells: 18.0 μSv/MBq
  OD Ovaries: 13.8 μSv/MBq
  OD Pancreas: 15.9 μSv/MBq
  OD Red Marrow: 23.2 μSv/MBq
  OD Skin: 5.3 μSv/MBq
  OD Small Intestine: 56.9 μSv/MBq
  OD Spleen: 24.0 μSv/MBq
  OD Stomach Wall: 31.5 μSv/MBq
  OD Testes: 8.0 μSv/MBq
  OD Thymus: 7.5 μSv/MBq
  OD Thyroid: 8.4 μSv/MBq
  OD Total Body: 11.4 μSv/MBq
  OD ULI Wall: 24.3 μSv/MBq
  OD Urinary Bladder Wall: 24.7 μSv/MBq
  OD Uterus: 13.0 μSv/MBq
[2]
  ED Contr. Adrenals: 0.1 μSv/MBq
  ED Contr. Brain: 0.2 μSv/MBq
  ED Contr. Breasts: 0.8 μSv/MBq
  ED Contr. Gallbladder Wall: 0.5 μSv/MBq
  ED Contr. Heart Wall: 0.2 μSv/MBq
  ED Contr. Kidneys: 0.3 μSv/MBq
  ED Contr. LLI Wall: 1.0 μSv/MBq
  ED Contr. Liver: 3.0 μSv/MBq
  ED Contr. Lungs: 3.4 μSv/MBq
  ED Contr. Muscle: 0.1 μSv/MBq
  ED Contr. Osteogenic Cells: 0.2 μSv/MBq
  ED Contr. Ovaries: 1.0 μSv/MBq
  ED Contr. Pancreas: 0.1 μSv/MBq
  ED Contr. Red Marrow: 2.8 μSv/MBq
  ED Contr. Skin: 0.1 μSv/MBq
  ED Contr. Small Intestine: 0.5 μSv/MBq
  ED Contr. Spleen: 0.2 μSv/MBq
  ED Contr. Stomach Wall: 3.8 μSv/MBq
  ED Contr. Testes: 0.8 μSv/MBq
  ED Contr. Thymus: 0.1 μSv/MBq
  ED Contr. Thyroid: 0.3 μSv/MBq
  ED Contr. Total Body: 0.0 μSv/MBq
  ED Contr. ULI Wall: 1.5 μSv/MBq
  ED Contr. Urinary Bladder Wall: 1.0 μSv/MBq
  ED Contr. Uterus: 0.1 μSv/MBq
first-in-human, four healthy volunteers, ICRP 60 weighting
  ED ICRP 60: 22.1 μSv/MBq
[3]
  adverse effects: no adverse effects reported
  changes in vital signs: no significant changes in vital signs
Human TACs, brain, stomach, liver, spleen
  clearance of the radioligand from organs: rapidly removed from brain, stomach, liver, and spleen within one hour post injection
Human vs extrapolated animal data, p < 0.001
  actual ED from the human study in comparison to the extrapolated animal data: 1.6 fold
